Experimental data from the NIST ThermoML archive (doi:10.1016/j.jct.2014.12.004).
± gives the expanded uncertainty stated by the source.

Settings: Crystal; DTA

Normal melting temperature | Structure (SMILES)
259.1 ± 0.4 °C | O=c1c2ccccc2nc2n1CCc1c-2[nH]c2ccccc12 [Rutecarpine]
275.1 ± 0.4 °C | CN1c2ccccc2C(=O)N2CCc3c([nH]c4ccccc34)[C@H]21 [evodiamine]
